From US20240132485A1, “HETEROCYCLIC CULLIN RING UBIQUITIN LIGASE COMPOUNDS AND USES THEREOF” (CEMM - FORSCHUNGSZENTRUM FÜR MOLEKULARE MEDIZIN GMBH, priority 2020, published 2024)

Tests used:
CCNK = assay: NanoLuc-CCNK degradation assay (HEK293T_Nluc_CCNK-tagged cells); assay type: cell-based; conditions: for DC50 / NanoLuc-CCNK degradation DC50 Activity Class: 4 h incubation, HEK293T_Nluc_CCNK-tagged cells; for DC50: read-out: NanoLuc-CCNK degradation DC50 Activity Class
Method in brief: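 HEK293T cells with nanoluciferase knocked in at the N-terminus of endogenous CCNK (CRISPR) exposed to a 10-point titration (0 to 10 μM, 1:4) in Opti-MEM I + 4% FBS for 4 h. Nano-Glo substrate then added and luminescence read as a measure of Cyclin K abundance.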

[1] = biological target: T1, DDB1-CDK12/Cyclin K ternary complex (Homo sapiens, UniProt Q16531+Q9NYV4); assay: NanoBRET EC50 assay (HaloTag_CDK12 / NanoLuc_DDB1 in HEK293T); assay type: cell-based; conditions: for NanoBRET EC50 Activity Class / EC50: 10-point titration from 20 μM, HEK293T; for EC50: read-out: NanoBRET EC50 Activity Class
T1 construct: expressed in transfected cells; host or cells: HEK293T wildtype cells, transient PEI transfection
T1 sequence (Q9NYV4 whole entry): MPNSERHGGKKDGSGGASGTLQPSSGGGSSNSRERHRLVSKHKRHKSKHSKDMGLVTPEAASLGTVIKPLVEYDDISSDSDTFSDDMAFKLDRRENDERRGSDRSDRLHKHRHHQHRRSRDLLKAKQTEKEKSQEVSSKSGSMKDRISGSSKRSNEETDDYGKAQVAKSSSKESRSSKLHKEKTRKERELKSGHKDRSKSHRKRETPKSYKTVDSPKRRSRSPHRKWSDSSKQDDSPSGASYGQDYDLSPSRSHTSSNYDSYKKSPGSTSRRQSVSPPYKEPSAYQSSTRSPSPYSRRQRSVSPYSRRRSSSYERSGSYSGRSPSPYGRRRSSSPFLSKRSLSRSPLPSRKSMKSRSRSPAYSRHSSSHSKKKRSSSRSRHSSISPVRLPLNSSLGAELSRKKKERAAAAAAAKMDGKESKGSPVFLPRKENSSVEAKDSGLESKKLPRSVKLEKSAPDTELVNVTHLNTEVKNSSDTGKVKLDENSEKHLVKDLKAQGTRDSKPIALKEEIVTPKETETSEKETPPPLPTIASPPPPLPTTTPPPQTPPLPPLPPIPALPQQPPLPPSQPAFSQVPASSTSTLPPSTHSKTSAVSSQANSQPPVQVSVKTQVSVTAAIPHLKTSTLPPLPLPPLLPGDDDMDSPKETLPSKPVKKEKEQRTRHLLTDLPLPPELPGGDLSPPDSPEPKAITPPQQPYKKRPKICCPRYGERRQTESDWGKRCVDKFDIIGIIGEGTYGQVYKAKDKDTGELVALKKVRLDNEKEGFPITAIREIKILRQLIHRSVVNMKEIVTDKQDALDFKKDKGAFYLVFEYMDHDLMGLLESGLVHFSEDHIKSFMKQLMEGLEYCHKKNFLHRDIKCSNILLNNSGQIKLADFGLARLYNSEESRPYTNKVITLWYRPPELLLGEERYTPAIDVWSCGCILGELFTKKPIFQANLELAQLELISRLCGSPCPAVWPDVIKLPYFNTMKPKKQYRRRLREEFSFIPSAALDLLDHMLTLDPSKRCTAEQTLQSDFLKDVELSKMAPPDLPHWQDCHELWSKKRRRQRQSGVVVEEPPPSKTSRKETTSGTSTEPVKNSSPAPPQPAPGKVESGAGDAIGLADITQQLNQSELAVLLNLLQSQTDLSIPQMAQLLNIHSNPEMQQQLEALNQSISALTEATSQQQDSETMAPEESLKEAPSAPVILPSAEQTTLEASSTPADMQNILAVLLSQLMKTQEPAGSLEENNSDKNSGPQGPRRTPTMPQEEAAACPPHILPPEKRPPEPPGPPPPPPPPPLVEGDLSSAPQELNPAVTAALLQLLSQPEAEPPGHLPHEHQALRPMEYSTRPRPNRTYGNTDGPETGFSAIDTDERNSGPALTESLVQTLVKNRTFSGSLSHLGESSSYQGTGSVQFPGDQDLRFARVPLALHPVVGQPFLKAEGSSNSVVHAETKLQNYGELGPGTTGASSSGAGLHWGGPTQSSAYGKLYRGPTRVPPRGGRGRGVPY
T1 sequence (Q16531 whole entry): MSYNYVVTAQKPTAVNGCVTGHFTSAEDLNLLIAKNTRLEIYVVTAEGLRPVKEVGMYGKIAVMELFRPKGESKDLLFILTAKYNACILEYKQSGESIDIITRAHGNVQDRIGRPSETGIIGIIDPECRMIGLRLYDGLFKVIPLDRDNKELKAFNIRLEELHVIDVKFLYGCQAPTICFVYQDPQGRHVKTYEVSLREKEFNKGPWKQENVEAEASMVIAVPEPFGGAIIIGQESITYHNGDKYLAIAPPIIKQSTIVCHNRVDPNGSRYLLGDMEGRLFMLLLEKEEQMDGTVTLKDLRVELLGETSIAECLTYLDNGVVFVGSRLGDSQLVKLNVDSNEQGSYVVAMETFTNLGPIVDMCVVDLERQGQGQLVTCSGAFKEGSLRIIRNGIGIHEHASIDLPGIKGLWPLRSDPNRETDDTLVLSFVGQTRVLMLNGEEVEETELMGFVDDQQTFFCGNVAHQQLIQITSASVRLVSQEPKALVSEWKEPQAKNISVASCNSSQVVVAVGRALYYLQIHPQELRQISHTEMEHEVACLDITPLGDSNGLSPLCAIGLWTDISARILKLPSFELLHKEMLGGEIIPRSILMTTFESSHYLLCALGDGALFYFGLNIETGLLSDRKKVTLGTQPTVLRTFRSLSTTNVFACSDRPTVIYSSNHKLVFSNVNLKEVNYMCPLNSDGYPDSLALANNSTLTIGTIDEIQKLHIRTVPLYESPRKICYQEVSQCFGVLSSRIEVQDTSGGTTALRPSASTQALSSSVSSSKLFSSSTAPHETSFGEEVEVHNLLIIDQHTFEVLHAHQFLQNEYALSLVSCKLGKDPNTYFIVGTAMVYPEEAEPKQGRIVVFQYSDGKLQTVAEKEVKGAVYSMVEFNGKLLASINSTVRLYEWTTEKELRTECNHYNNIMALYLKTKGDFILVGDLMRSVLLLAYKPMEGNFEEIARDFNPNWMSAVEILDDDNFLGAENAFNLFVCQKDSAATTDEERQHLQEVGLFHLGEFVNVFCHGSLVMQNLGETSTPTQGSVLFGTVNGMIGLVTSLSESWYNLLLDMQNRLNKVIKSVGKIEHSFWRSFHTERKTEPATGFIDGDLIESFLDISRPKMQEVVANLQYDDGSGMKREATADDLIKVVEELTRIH
T1 sequence (O75909 whole entry partner): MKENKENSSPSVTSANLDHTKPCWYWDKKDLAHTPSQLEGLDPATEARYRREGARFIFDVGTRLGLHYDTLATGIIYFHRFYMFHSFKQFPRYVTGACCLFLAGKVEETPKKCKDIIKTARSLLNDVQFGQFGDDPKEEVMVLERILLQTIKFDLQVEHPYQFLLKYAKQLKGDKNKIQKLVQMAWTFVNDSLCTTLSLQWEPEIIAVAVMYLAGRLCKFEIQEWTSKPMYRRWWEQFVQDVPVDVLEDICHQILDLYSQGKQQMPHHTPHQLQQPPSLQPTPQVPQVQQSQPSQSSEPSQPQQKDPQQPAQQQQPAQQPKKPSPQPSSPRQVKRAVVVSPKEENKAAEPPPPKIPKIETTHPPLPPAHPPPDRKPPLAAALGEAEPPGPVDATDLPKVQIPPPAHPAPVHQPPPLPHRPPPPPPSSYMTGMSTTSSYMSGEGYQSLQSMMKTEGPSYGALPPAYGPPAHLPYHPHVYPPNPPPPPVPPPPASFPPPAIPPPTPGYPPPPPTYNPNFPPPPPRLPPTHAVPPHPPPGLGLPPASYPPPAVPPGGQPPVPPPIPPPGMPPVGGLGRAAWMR
Method: This assay measures the interaction/recruitment of CDK12/Cyclin K to DDB1, mechanistically validating the molecular glue pharmacology.
HEK293T wildtype cells are seeded 800 k cells/well (DMEM+10% FBS+1% PS) in a 6-well plate and allowed to attach for ˜7 hours followed by a transient transfection of 1.5 μg HaloTag_CDK12 Plasmid [Table 1] and 0.15 μg NanoLuc_DDB1 plasmid [Table 1] per well using PEI. Cells are incubated at 37° C., 5% CO2, harvested after 24 hours and resuspended in assay media (Opti-MEM Reduced serum media, no phenol red, 4% FBS, 1% PS). Cells are adjusted to 2.3×10^5 cells/ml and treated with HaloTag 618 Ligand at 100 nM or DMSO. 8000 cells are seeded per well in triplicates per compound in a white-walled 384-well plate, one negative control treated with DMSO instead of HaloTag 618 Ligand is seeded in triplicates and the 384-well plate is incubated at 37° C., 5% CO2 overnight. Compound stock solutions are prepared in Opti-MEM−/− (Opti-MEM I Reduced serum media, no phenol red) at 8× and used to treat the cells at a final concentration of 1× at 10 μM. Cells and compounds are incubated for 10 minutes at room temperature followed by addition of NanoBRET Nano-Glo substrate following manufacturer's protocols. The plate is shaken for 30 sec followed by immediate measurement of donor emission (NanoBRET Blue at 460 nm) and acceptor emission (BRET Deep Red at 647 nm) for 0.5 s.
The assay setup is identical to “NanoBRET fold change experimental setup”. Instead of treating cells in […] with 10 μM compound, a 10-point titration starting at 20 μM is performed with a dilution factor of 1:4, covering α range of 20000 nM-0.076 nM.

[2] = system: KBM7 cells harboring a hypomorphic UBE2M mutation; assay: KBM7 CTG EC50 assay (UBE2M knock-out); assay type: cell-based; conditions: Homo sapiens, KBM-7; 72 h incubation, CellTiter-Glo; read-out: KBM7 CTG EC50 (UBE2M knock-out) Activity Class
Method in brief: (§1)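 Wild-type KBM7 cells, or KBM7 cells with a hypomorphic UBE2M mutation that impairs Cullin-RING ligase activity, were treated for 72 h with compounds in a 10-point, 1:4 titration (0 to 20 μM). Viability was read by CellTiter-Glo 2.0 luminescence.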

KBM7 cells (wild-type) = assay: KBM7 CTG EC50 assay (UBE2M wild-type); assay type: cell-based, human; conditions: for EC50: Homo sapiens, KBM-7, 72 h incubation, CellTiter-Glo, read-out: KBM7 CTG EC50 (UBE2M wild-type) Activity Class; for Ratio UBE2M WT to KO: ratio of anti-proliferative activity in KBM7 wild-type versus UBE2M knock-out cells (fold)
Method in brief: as §1

[3] = biological target: T1, DDB1-CDK12/Cyclin K ternary complex; assay: NanoBRET fold-change assay (HaloTag_CDK12 / NanoLuc_DDB1 in HEK293T); assay type: cell-based; conditions: 10 μM compound, 10 minutes
Method in brief: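 HEK293T cells transiently co-transfected with HaloTag_CDK12 and NanoLuc_DDB1, labelled overnight with 100 nM HaloTag 618 ligand (DMSO no-ligand control), then treated with compound at 10 μM final for 10 min at room temperature. BRET read as 460 nm donor and 647 nm acceptor emission after Nano-Glo substrate; reported as fold change.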

Row | Structure (SMILES) | DC50 (CCNK) | NanoBRET EC50 Activity Class [1] | EC50 [2] | EC50 (KBM7 cells (wild-type)) | Ratio UBE2M WT to KO (KBM7 cells (wild-type)) | NanoBRET fold-change Activity Class [3] | EC50 [1] | activity in NanoLuc CCNK degradation assay, in words (CCNK) | activity in NanoBRET assay (ternary complex formation), in words [1] | activity in KBM7 cytotoxicity assay, in words (KBM7 cells (wild-type); KBM7) | NanoLuc-CCNK degradation DC50 Activity Class (CCNK) | dependence of cytotoxicity on UBE2M, in words (KBM7 cells (wild-type); KBM7 wild-type versus UBE2M mutant)
1 | O=C(Nc1ncc(C(F)(F)F)s1)C1CC(=O)N(c2cccc(Cl)c2)C1 (stereo not drawn) [Example 3-19, 1-(3-chlorophenyl)-5-oxo-N-(5-(trifluoromethyl)thiazol-2-yl)pyrrolidine-3-carboxamide] | ≤ 100 nM | B (0.50 μM≤EC50≤0.25 μM) | ≤ 250 nM | ≤ 250 nM | 9.1 | A (greater than 4-fold increase) | – | – | – | – | – | –
2 | O=C(Nc1ncc(C(F)(F)F)s1)C1CC(=O)N(c2cc(F)ccc2F)C1 (stereo not drawn) [Example 3-22, 1-(2,5-difluorophenyl)-5-oxo-N-(5-(trifluoromethyl)thiazol-2-yl)pyrrolidine-3-carboxamide] | > 10000 nM | – | > 10000 nM | ≤ 250 nM | >10 | B (3-4 fold increase) | > 10000 nM | – | – | – | – | –
3 | CC(C(=O)Nc1ncc(C(F)(F)F)s1)c1cnc2ccccc2c1 (stereo not drawn) [Example 3-35, 2-(quinolin-3-yl)-N-(5-(trifluoromethyl)thiazol-2-yl)propanamide] | ≤ 100 nM | – | ≤ 250 nM | ≤ 250 nM | 15.1 | A (greater than 4-fold increase) | ≤ 250 nM | – | – | – | – | –
4 | O=C(Cc1c[nH]c2ncccc12)Nc1ncc(C(F)(F)F)s1 [Example 3-38, 2-(1H-pyrrolo[2,3-b]pyridin-3-yl)-N-(5-(trifluoromethyl)thiazol-2-yl)acetamide] | > 10000 nM | C (1.0 μM≤EC50<0.50 μM) | > 10000 nM | 500 to 1000 nM | >10 | B (3-4 fold increase) | – | – | – | – | – | –
5 | Cc1ccc2c(CC(=O)Nc3ncc(C4CC4)s3)coc2c1C [Example 3-42, N-(5-cyclopropylthiazol-2-yl)-2-(6,7-dimethylbenzofuran-3-yl)acetamide] | ≤ 100 nM | C (1.0 μM≤EC50<0.50 μM) | ≤ 250 nM | ≤ 250 nM | 8.5 | A (greater than 4-fold increase) | – | – | – | – | – | –
6 | O=C(Cc1cn2cc(F)ccc2n1)Nc1ncc(C2CC2)s1 [Example 3-43, N-(5-cyclopropylthiazol-2-yl)-2-(6-fluoroimidazo[1,2-a]pyridin-2-yl)acetamide] | ≤ 100 nM | – | ≤ 250 nM | ≤ 250 nM | – | A (greater than 4-fold increase) | ≤ 250 nM | exceptional | exceptional | extremely potent activity | – | –
7 | Cc1cc(NC(=O)Cc2coc3c(C)c(C)ccc23)n[nH]1 [Example 3-44, 2-(6,7-dimethylbenzofuran-3-yl)-N-(5-methyl-1H-pyrazol-3-yl)acetamide] | – | – | 250 to 500 nM | ≤ 250 nM | 34.4 | A (greater than 4-fold increase) | ≤ 250 nM | – | – | – | B (0.50 μM≤DC50<0.10 μM) | –
8 | Cc1ccc2c(CC(=O)Nc3cc(C(C)C)[nH]n3)coc2c1C [Example 3-45, 2-(6,7-dimethylbenzofuran-3-yl)-N-(5-isopropyl-1H-pyrazol-3-yl)acetamide] | ≤ 100 nM | B (0.50 μM≤EC50≤0.25 μM) | ≤ 250 nM | ≤ 250 nM | 18.6 | A (greater than 4-fold increase) | – | – | – | – | – | extremely high dependence
9 | Cc1ccc2c(CC(=O)Nc3cc(Br)[nH]n3)coc2c1C [Example 3-47, N-(5-bromo-1H-pyrazol-3-yl)-2-(6,7-dimethylbenzofuran-3-yl)acetamide] | ≤ 100 nM | B (0.50 μM≤EC50≤0.25 μM) | 500 to 1000 nM | ≤ 250 nM | 15.7 | A (greater than 4-fold increase) | – | – | – | – | – | –
10 | Cc1ccc2c(CC(=O)Nc3cc(C(F)(F)F)[nH]n3)coc2c1C [Example 3-48, 2-(6,7-dimethylbenzofuran-3-yl)-N-(5-(trifluoromethyl)-1H-pyrazol-3-yl)acetamide] | – | B (0.50 μM≤EC50≤0.25 μM) | 500 to 1000 nM | ≤ 250 nM | 15.7 | B (3-4 fold increase) | – | – | – | – | B (0.50 μM≤DC50<0.10 μM) | –
11 | Cc1ccc(NC(=O)Cc2coc3c(C)c(C)ccc23)nc1 [Example 3-50, 2-(6,7-dimethylbenzofuran-3-yl)-N-(5-methylpyridin-2-yl)acetamide] | – | – | > 10000 nM | 250 to 500 nM | >10 | A (greater than 4-fold increase) | ≤ 250 nM | – | – | – | D (10 μM≤DC50<1.0 μM) | –
12 | Cc1ccc2c(CC(=O)Nc3ccc(C(C)C)cn3)coc2c1C [Example 3-51, 2-(6,7-dimethylbenzofuran-3-yl)-N-(5-isopropylpyridin-2-yl)acetamide] | – | C (1.0 μM≤EC50<0.50 μM) | > 10000 nM | 1000 to 10000 nM | >8 | B (3-4 fold increase) | – | – | – | – | D (10 μM≤DC50<1.0 μM) | –
13 | Cc1ccc2c(CC(=O)Nc3ccc(C4CC4)cn3)coc2c1C [Example 3-52, N-(5-cyclopropylpyridin-2-yl)-2-(6,7-dimethylbenzofuran-3-yl)acetamide] | – | – | 1000 to 10000 nM | ≤ 250 nM | 27.0 | A (greater than 4-fold increase) | ≤ 250 nM | – | – | – | B (0.50 μM≤DC50<0.10 μM) | –
14 | Cc1ccc2c(CC(=O)Nc3ccc(Br)cn3)coc2c1C [Example 3-53, N-(5-bromopyridin-2-yl)-2-(6,7-dimethylbenzofuran-3-yl)acetamide] | – | – | 1000 to 10000 nM | ≤ 250 nM | 22.7 | B (3-4 fold increase) | > 10000 nM | – | – | – | B (0.50 μM≤DC50<0.10 μM) | –
15 | O=C(Cc1cn2cc(F)ccc2n1)Nc1cc(C(F)(F)F)[nH]n1 [Example 3-59, 2-(6-fluoroimidazo[1,2-a]pyridin-2-yl)-N-(5-(trifluoromethyl)-1H-pyrazol-3-yl)acetamide] | > 10000 nM | – | > 10000 nM | 250 to 500 nM | >10 | C (2-3 fold increase) | > 10000 nM | – | – | – | – | –
16 | O=C(Cc1cn2cc(F)ccc2n1)Nc1ccc(C2CC2)cn1 [Example 3-62, N-(5-cyclopropylpyridin-2-yl)-2-(6-fluoroimidazo[1,2-a]pyridin-2-yl)acetamide] | ≤ 100 nM | – | 250 to 500 nM | ≤ 250 nM | 50.8 | A (greater than 4-fold increase) | ≤ 250 nM | – | – | – | – | –
17 | O=C(CCn1cnc2ccccc2c1=O)Nc1ncc(C(F)(F)F)s1 [Example 3-63, 3-(4-oxoquinazolin-3(4H)-yl)-N-(5-(trifluoromethyl)thiazol-2-yl)propanamide] | – | – | 1000 to 10000 nM | ≤ 250 nM | 13.9 | B (3-4 fold increase) | > 10000 nM | – | – | – | B (0.50 μM≤DC50<0.10 μM) | –
